Where a SMILES comes first, the peptide text is derived from it. Bridges are numbered along the chain shown (N, C = ends).
Experiments:
α3β2 nAChR = conditions: cited from earlier work
α9α10 nAChR = target: T1, α9α10 nAChR (Rattus norvegicus, UniProt P43144+Q9JLB5); conditions: read-out: IC50 α9α10; cited from earlier work
T1 construct: expressed in transfected cells; host or cells: Xenopus oocytes (cRNA injection)

α7 nAChR = target: T2, α7 nAChR (Rattus norvegicus, UniProt Q05941); conditions: cited from earlier work
T2 construct: expressed in transfected cells; host or cells: Xenopus oocytes (cRNA injection)

α4β2 nAChR = target: T3, α4β2 nAChR (Rattus norvegicus, UniProt P09483+P12390); conditions: cited from earlier work
T3 construct: expressed in transfected cells; host or cells: Xenopus oocytes (cRNA injection)

rat α3β2 nAChRs = target: T4, rat α3β2 nAChRs (Rattus norvegicus, UniProt P04757+P12390); experiment: cell-based
T4 construct: expressed in transfected cells; host or cells: Xenopus oocytes (cRNA injection)

GABABR-coupled Cav2.2 = target: T5, GABABR-coupled Cav2.2 (Homo sapiens, UniProt O75899+Q9UBS5); experiment: cell-based; set-up: species or system human GABABR and rat Cav2.2
T5 construct: expressed in transfected cells; host or cells: HEK293T cells, transient transfection; GABAB subunit plasmids from David J. Adams, University of Wollongong

hα3β2 nAChR = conditions: cited from earlier work
hα4β2 nAChR = conditions: cited from earlier work
hα3β4 nAChR = conditions: cited from earlier work

T4 sequence (P04757 26-499 limits assumed): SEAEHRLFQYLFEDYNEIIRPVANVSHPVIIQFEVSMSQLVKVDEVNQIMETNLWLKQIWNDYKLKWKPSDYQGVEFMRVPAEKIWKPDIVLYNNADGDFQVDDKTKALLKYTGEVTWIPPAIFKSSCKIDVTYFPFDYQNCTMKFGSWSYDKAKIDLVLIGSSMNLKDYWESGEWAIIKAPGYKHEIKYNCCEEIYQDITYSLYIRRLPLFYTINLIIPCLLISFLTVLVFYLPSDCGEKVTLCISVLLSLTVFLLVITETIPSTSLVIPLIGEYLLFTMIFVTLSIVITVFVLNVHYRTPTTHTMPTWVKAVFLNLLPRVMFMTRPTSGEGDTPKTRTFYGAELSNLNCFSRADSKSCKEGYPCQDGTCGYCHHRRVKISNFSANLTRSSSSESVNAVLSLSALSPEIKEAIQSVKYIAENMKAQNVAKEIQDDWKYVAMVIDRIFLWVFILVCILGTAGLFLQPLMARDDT
T4 sequence (P12390 25-500 limits assumed): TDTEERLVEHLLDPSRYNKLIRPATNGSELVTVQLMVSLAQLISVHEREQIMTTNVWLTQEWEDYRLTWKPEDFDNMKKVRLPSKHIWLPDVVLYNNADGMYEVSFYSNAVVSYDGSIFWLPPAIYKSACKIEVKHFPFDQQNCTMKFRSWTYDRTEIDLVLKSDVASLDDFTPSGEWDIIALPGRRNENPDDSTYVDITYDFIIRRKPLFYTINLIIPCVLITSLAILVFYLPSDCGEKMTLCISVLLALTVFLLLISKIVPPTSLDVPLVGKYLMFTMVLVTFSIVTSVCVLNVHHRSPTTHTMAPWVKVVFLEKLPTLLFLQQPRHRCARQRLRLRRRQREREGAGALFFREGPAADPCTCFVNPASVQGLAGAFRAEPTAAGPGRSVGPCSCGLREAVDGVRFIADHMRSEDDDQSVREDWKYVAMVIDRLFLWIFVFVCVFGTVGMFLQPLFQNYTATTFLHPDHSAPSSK
T5 sequence (Q9UBS5 15-961 limits assumed): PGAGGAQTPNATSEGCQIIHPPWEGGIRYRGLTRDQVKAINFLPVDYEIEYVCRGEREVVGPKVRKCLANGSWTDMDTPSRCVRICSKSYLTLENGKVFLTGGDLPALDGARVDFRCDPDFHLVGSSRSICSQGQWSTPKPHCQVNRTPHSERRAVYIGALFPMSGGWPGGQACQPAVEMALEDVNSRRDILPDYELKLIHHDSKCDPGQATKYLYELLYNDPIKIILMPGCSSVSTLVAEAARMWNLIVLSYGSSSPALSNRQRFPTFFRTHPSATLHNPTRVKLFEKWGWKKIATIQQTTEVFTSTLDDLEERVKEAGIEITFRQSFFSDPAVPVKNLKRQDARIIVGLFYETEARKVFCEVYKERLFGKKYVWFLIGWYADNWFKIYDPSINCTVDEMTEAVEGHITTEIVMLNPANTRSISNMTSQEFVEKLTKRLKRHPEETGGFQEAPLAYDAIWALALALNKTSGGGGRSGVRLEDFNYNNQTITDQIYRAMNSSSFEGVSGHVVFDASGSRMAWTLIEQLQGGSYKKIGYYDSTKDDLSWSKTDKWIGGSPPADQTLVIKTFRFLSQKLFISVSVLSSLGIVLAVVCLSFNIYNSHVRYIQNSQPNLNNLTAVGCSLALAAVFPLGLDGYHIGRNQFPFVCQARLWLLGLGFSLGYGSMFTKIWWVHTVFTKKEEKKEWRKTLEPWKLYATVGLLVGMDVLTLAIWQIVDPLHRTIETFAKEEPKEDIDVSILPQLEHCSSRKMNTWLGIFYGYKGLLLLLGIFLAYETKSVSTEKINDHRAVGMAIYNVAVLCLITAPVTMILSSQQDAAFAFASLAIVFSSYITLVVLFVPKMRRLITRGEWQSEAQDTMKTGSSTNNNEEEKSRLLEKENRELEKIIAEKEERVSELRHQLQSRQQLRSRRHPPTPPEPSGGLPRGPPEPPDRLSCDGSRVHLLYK
T5 sequence (O75899 42-941): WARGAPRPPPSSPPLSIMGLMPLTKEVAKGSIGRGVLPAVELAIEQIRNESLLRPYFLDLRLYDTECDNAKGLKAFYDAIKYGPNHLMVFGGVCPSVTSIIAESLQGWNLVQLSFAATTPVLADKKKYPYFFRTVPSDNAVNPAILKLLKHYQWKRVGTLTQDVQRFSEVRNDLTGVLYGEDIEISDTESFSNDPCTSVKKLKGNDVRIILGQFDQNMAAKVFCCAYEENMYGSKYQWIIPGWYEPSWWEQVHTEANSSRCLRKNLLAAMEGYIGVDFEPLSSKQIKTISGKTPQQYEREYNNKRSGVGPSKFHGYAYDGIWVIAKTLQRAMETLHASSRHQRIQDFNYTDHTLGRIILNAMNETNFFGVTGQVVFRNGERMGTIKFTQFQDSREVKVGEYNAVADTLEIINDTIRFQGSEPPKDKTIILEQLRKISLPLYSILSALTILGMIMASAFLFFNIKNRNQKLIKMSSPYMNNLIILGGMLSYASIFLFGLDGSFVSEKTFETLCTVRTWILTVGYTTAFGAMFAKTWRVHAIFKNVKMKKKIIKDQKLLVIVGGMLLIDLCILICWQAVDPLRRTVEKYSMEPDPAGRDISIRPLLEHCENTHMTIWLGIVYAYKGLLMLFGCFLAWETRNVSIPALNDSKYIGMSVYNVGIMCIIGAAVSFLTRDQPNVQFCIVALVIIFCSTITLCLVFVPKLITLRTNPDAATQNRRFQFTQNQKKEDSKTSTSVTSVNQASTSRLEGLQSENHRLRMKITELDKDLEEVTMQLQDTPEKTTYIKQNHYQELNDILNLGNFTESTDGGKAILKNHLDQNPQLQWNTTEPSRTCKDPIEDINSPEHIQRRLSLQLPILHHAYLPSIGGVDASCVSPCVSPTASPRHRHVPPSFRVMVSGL
T1 sequence (P43144 26-479 limits assumed): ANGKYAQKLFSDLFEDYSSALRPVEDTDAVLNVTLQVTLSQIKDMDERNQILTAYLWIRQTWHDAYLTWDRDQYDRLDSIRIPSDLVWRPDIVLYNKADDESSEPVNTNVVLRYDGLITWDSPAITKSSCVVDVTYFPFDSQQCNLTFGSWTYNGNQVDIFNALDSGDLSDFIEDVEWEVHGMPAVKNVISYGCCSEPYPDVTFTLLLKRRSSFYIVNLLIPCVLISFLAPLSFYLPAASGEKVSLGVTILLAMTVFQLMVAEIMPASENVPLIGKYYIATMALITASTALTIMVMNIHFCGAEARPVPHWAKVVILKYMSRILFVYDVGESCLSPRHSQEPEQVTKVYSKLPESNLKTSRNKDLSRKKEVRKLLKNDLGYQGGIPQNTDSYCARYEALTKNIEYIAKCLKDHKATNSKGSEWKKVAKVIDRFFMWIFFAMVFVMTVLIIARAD
T1 sequence (Q9JLB5 25-447 limits assumed): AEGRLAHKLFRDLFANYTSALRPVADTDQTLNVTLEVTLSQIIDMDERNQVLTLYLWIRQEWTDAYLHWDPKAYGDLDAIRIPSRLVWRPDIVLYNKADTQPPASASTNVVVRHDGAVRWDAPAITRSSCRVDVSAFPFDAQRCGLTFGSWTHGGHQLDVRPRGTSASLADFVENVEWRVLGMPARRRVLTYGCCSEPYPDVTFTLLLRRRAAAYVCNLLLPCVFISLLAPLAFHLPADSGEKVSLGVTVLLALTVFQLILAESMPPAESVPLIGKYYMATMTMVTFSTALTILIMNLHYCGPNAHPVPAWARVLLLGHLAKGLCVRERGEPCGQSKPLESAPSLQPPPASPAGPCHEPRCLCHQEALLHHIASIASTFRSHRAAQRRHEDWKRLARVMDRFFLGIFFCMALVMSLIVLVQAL

G CC SNPV C HLEHSNL C * (bicyclic or more) [MII, α4/7-CTx targeting nAChR α3β2]
IC50 (α3β2 nAChR): 0.5 nM

PE CC THPA C HVSHPEL C * (bicyclic or more) [Mr1.7, α4/7-CTx targeting nAChR α3β2]
IC50 (α3β2 nAChR): 53.1 nM | IC50 (α9α10 nAChR): 188 nM

SG CC SNPA C RVNNPNI C * (bicyclic or more) (SGCCSNPACRVNNPNIC) [LsIA, α4/7-CTx targeting nAChR α3β2]
IC50 (α7 nAChR): 10.1 nM

G CC SNPV C HLEHSNL C * (bicyclic or more) (GCCSNPVCHLEHSNLC) [MII, α4/7-CTx targeting nAChR α3β2]
IC50 (α4β2 nAChR): 548 nM | IC50 (α7 nAChR): ~200 nM

SG CC SNPA C RVNNPNI C * (bicyclic or more) [LsIA, α4/7-CTx targeting nAChR α3β2]
IC50 (α3β2 nAChR): 10.3 nM

C[C@@H]1NC(=O)CNC(=O)[C@H](CO)NC(=O)[C@@H]2CSSC[C@H](NC(=O)CN)C(=O)N[C@@H](CSSC[C@@H](C(N)=O)NC(=O)[C@H](Cc3ccccc3)NC(=O)[C@H](Cc3ccc(O)cc3)NC(=O)[C@@H]3CCCN3C(=O)[C@H](CC(N)=O)NC1=O)C(=O)N[C@@H](CO)C(=O)N[C@@H](Cc1c[nH]cn1)C(=O)N1CCC[C@H]1C(=O)N[C@@H](C)C(=O)N2 [Lt1.3[N11A]] (H-GCCSHPACSGANPYFC-NH2; disulfide 2-8, 3-16; N-terminus assumed)
IC50 (rat α3β2 nAChRs): > 10000 nM

IRDE CC SNPA C RVNNOHV C RRR (bicyclic or more) [ArIA, α4/7-CTx targeting nAChR α3β2]
IC50 (α3β2 nAChR): 18 nM

C[C@@H]1NC(=O)[C@@H]2CSSC[C@H](NC(=O)CN)C(=O)N[C@@H](CSSC[C@@H](C(N)=O)NC(=O)[C@H](Cc3ccccc3)NC(=O)[C@H](Cc3ccc(O)cc3)NC(=O)[C@@H]3CCCN3C(=O)[C@H](CC(N)=O)NC(=O)[C@H](CC(N)=O)NC(=O)CNC1=O)C(=O)N[C@@H](CO)C(=O)N[C@@H](Cc1c[nH]cn1)C(=O)N1CCC[C@H]1C(=O)N[C@@H](C)C(=O)N2 [Lt1.3[S9A]]
IC50 (rat α3β2 nAChRs): 35.4 nM

C[C@@H]1NC(=O)[C@@H]2CCCN2C(=O)[C@H](Cc2c[nH]cn2)NC(=O)[C@H](CO)NC(=O)[C@@H]2CSSC[C@H](NC1=O)C(=O)N[C@@H](CO)C(=O)NCC(=O)N[C@@H](CC(N)=O)C(=O)N[C@@H](CC(N)=O)C(=O)N1CCC[C@H]1C(=O)N[C@@H](Cc1ccc(O)cc1)C(=O)N[C@@H](Cc1ccccc1)C(=O)N[C@H](C(N)=O)CSSC[C@H](NC(=O)CN)C(=O)N2 [Lt1.3-I] (H-GCCSHPACSGNNPYFC-NH2; disulfide 2-16, 3-8)
IC50 (rat α3β2 nAChRs): > 10000 nM | IC50 (GABABR-coupled Cav2.2): 33.9 nM | inhibition at 0.1 µM (GABABR-coupled Cav2.2; HEK-293T, read-out: inhibition of peak current amplitude, SEM): 28 ± 3.8%

G CC SHPA C AGNNQHI C * (bicyclic or more) [GIC, α4/7-CTx targeting nAChR α3β2]
IC50 (hα3β2 nAChR): 1.1 nM | IC50 (hα4β2 nAChR): 309 nM | IC50 (hα3β4 nAChR): 755 nM

GG CC SHPA C AANNQD(sTy) C * (bicyclic or more) [AnIB, α4/7-CTx targeting nAChR α3β2]
IC50 (α3β2 nAChR): 0.3 nM

From PMC5923399 (Marine Drugs, 2018)
